Laboratory results taken from the supplement of paper PMC10307832.

What was measured:
Assay in all cases: relative viability (nuclei count vs DMSO), 5 days (fraction); higher = more cells survive
Erlotinib + Pemetrexed = compound: C#Cc1cccc(Nc2ncnc3cc(OCCOC)c(OCCOC)cc23)c1 [Erlotinib] + Nc1nc2[nH]cc(CCc3ccc(C(=O)N[C@@H](CCC(=O)O)C(=O)O)cc3)c2c(=O)[nH]1 [Pemetrexed] (partner 0.2 µM)
Outline: (§1)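 Lung cancer cell lines, seeded in 1536-well plates, were treated the following day by pin tool with a single drug or with five library-drug doses (not always all listed) in √10 steps on top of a fixed anchor-drug dose. Cells were fixed and nuclei stained in one step after 5 days, and nuclei were counted. Relative viability is the nuclei count for treated wells divided by that for vehicle wells, reported as medians of duplicate plates.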

AT9283 + Bortezomib = compound: O=C(Nc1c[nH]nc1-c1nc2ccc(CN3CCOCC3)cc2[nH]1)NC1CC1 [AT9283] + CC(C)C[C@H](NC(=O)[C@H](Cc1ccccc1)NC(=O)c1cnccn1)B(O)O [Bortezomib] (partner 0.002 µM)
Outline: as §1

AT9283 + Luminespib = compound: O=C(Nc1c[nH]nc1-c1nc2ccc(CN3CCOCC3)cc2[nH]1)NC1CC1 [AT9283] + CCNC(=O)c1noc(-c2cc(C(C)C)c(O)cc2O)c1-c1ccc(CN2CCOCC2)cc1 [Luminespib] (partner 0.01 µM)
Outline: as §1

AT9283 + Pictilisib = compound: O=C(Nc1c[nH]nc1-c1nc2ccc(CN3CCOCC3)cc2[nH]1)NC1CC1 [AT9283] + CS(=O)(=O)N1CCN(Cc2cc3nc(-c4cccc5[nH]ncc45)nc(N4CCOCC4)c3s2)CC1 [Pictilisib] (partner 1 µM)
Outline: as §1

AT9283 + Decitabine = compound: O=C(Nc1c[nH]nc1-c1nc2ccc(CN3CCOCC3)cc2[nH]1)NC1CC1 [AT9283] + Nc1ncn([C@H]2C[C@H](O)[C@@H](CO)O2)c(=O)n1 [Decitabine] (partner 2 µM)
Outline: as §1

Cell Line | relative viability (Erlotinib + Pemetrexed; first compound 0.02 µM) | relative viability (Erlotinib + Pemetrexed; first compound 0.2 µM) | relative viability (Erlotinib + Pemetrexed; first compound 0.6325 µM) | relative viability (Erlotinib + Pemetrexed; first compound 2 µM) | relative viability (AT9283 + Bortezomib; first compound 0.003 µM) | relative viability (AT9283 + Bortezomib; first compound 0.03 µM) | relative viability (AT9283 + Bortezomib; first compound 0.09487 µM) | relative viability (AT9283 + Bortezomib; first compound 0.3 µM) | relative viability (AT9283 + Luminespib; first compound 0.003 µM) | relative viability (AT9283 + Luminespib; first compound 0.03 µM) | relative viability (AT9283 + Luminespib; first compound 0.09487 µM) | relative viability (AT9283 + Luminespib; first compound 0.3 µM) | relative viability (AT9283 + Pictilisib; first compound 0.003 µM) | relative viability (AT9283 + Pictilisib; first compound 0.03 µM) | relative viability (AT9283 + Pictilisib; first compound 0.09487 µM) | relative viability (AT9283 + Pictilisib; first compound 0.3 µM) | relative viability (AT9283 + Decitabine; first compound 0.003 µM) | relative viability (AT9283 + Decitabine; first compound 0.03 µM) | relative viability (AT9283 + Decitabine; first compound 0.09487 µM) | relative viability (AT9283 + Decitabine; first compound 0.3 µM)
NCI-H1915 | 0.532 | 0.482 | 0.434 | 0.487 | 0.769 | 0.952 | 0.887 | 0.341 | 0.729 | 0.751 | 0.187 | 0.213 | 0.854 | 0.95 | 0.293 | 0.178 | 0.247 | 0.26 | 0.209 | 0.168
NCI-H1666 | 0.81 | 0.693 |  | 0.753 | 0.806 | 0.442 | 0.297 | 0.298 | 1.03 | 0.726 | 0.557 | 0.499 | 0.351 | 0.326 | 0.267 | 0.274 | 0.6 | 0.589 | 0.669 | 0.534
NCI-H1650 | 0.337 | 0.324 | 0.352 | 0.298 | 0.206 | 0.222 | 0.231 | 0.215 | 0.21 | 0.182 | 0.219 | 0.231 | 0.586 | 0.273 | 0.178 | 0.218 | 0.565 | 0.499 | 0.387 | 0.238
NCI-H322M | 0.604 | 0.548 | 0.521 | 0.507 | 1.25 | 1.34 | 0.861 | 0.407 | 0.864 | 0.541 | 0.405 | 0.41 | 0.498 | 0.413 | 0.294 | 0.298 | 0.775 | 0.531 | 0.588 | 0.462
LC-2-ad | 0.307 | 0.279 | 0.274 | 0.262 | 1.08 | 0.509 | 0.233 | 0.108 | 0.918 | 0.594 | 0.357 | 0.263 | 0.396 | 0.194 | 0.0807 | 0.0727 | 0.872 | 0.685 | 0.471 | 0.255
LCLC-103H | 0.502 | 0.449 | 0.476 | 0.45 | 1.08 | 0.935 | 0.641 | 0.538 | 0.829 | 0.755 | 0.313 | 0.304 | 0.536 | 0.427 | 0.251 | 0.291 | 0.755 | 0.774 | 0.444 | 0.35
NCI-H661 | 0.925 | 0.841 | 0.838 | 0.828 | 0.779 | 0.531 | 0.338 | 0.346 | 0.916 | 0.399 | 0.304 | 0.313 | 0.296 | 0.382 | 0.334 | 0.292 | 0.579 | 0.422 | 0.406 | 0.272
HCC-827 | 0.182 | 0.147 | 0.139 | 0.156 | 1.03 | 0.678 | 0.747 | 0.568 | 0.608 | 0.539 | 0.328 | 0.185 | 0.822 | 0.775 | 0.457 | 0.504 | 0.235 | 0.234 | 0.258 | 0.214
NCI-H2023 | 0.226 | 0.211 | 0.174 | 0.184 | 1 | 0.918 | 0.174 | 0.123 | 0.954 | 0.742 | 0.361 | 0.11 | 0.216 | 0.106 | 0.0878 | 0.111 | 0.202 | 0.202 | 0.127 | 0.0969
